Assay [1] concerns the target T1, human mu opioid receptor (Homo sapiens, UniProt P35372).
T1 construct: host or cells: CHO-K1
As to the kind of experiment: Radioligand binding assay on human mu opioid receptor.

Assay [2] addresses T1, human mu opioid receptor. As to the kind of experiment: biochemical. Particulars: read-out: intrinsic activity (IA), bound [35S]GTPγS relative to DAMGO (IA=100). For orientation: Binding of GTPγS marks nucleotide exchange on a G protein.
Assay [3] concerns loperamide-induced delayed gastric emptying. As to the kind of experiment: Rat gastric emptying assay (reversal of loperamide-induced delayed gastric emptying). Type of assay: in vivo. The note with it: administered orally, loperamide 1 mg/kg s.c., gastric emptying model.

Read-outs that look alike come from different tables or passages of the source.

T1 sequence (P35372 whole entry): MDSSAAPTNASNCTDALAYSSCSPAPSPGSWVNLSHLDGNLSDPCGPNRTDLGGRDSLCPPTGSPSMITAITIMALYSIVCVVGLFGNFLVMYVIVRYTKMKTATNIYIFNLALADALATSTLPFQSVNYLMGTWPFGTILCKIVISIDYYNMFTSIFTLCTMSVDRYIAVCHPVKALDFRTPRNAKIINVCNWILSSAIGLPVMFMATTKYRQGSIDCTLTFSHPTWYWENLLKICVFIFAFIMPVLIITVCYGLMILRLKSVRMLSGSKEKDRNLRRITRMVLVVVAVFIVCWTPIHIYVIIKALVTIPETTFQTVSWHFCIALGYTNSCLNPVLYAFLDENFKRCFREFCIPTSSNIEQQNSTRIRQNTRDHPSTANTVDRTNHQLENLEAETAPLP

Take `CCC(CC)CN(CCN1[C@@H]2CC[C@H]1C[C@@H](c1cccc(C(N)=O)c1O)C2)C(=O)CO` [Example 2, 3-endo-(8-2-[(2-Ethylbutyl)-(2-hydroxyacetyl)amino]-ethyl-8-azabicyclo[3.2.1]oct-3-yl)-2-hydroxybenzamide]: the Ki on human mu opioid receptor [1] (displacement of [3H]-Diprenorphine 0.5 nM, CHO-K1 cell membranes, read-out: pKi at the human mu opioid receptor (converted)) was 0.1 nM.
With `CC(C)(C)CN(CCN1[C@@H]2CC[C@H]1C[C@@H](c1cccc(C(N)=O)c1O)C2)C(=O)[C@@H](O)CO` [Example 6, 3-endo-(8-{2-[((S)-2,3-Dihydroxypropionyl)-(2,2-dimethylpropyl)amino]ethyl}-8-azabicyclo[3.2.1]oct-3-yl)-2-hydroxybenzamide], the Emax on human mu opioid receptor [2] was determined as 9%. Further, the Ki on human mu opioid receptor [1] is 0.251 nM. For the same molecule, in assay [3], the “ID50, dose required for 50% reversal of the effects of loperamide” value (from here on “ID50, dose required for 50% reversal”) came to 0.42 mg/kg.
Take `NC(=O)c1cccc(C2CC3CCC(C2)N3CCN(CC2CCC(F)(F)CC2)C(=O)CO)c1O` (stereo not drawn) [Example 4, 3-endo-(8-2-[(4,4-Difluorocyclohexylmethyl)-(2-hydroxyacetyl)-amino]ethyl-8-azabicyclo[3.2.1]oct-3-yl)-2-hydroxybenzamide]: the “ID50, dose required for 50% reversal” value in assay [3] turned out to be 0.014 mg/kg.
On to `CCC(CC)CN(CCN1[C@@H]2CC[C@H]1C[C@@H](c1cccc(C(N)=O)c1O)C2)C(=O)[C@@H](O)CO` [Example 1, 3-endo-(8-{2-[((S)-2,3-Dihydroxypropionyl)-(2-ethylbutyl)-amino]ethyl}-8-azabicyclo[3.2.1]oct-3-yl)-2-hydroxybenzamide], for which, on human mu opioid receptor [2], the Emax is -1%. This molecule returned a Ki on human mu opioid receptor [1] of 0.1 nM. Moreover, in assay [3], the “ID50, dose required for 50% reversal” value came out at 0.11 mg/kg.
